Test results taken from patent US20080255053A1, “METHOD FOR THE THERAPEUTIC MANAGEMENT OF ENDOMETRIOSIS” (Aeterna Zentaris GmbH, priority 1999, published 2008).
Non-standard residues stand in square brackets, D forms with d. Residues, ends and D or L forms follow the SMILES beside them. dPhe(4-Cl) = N[C@H](Cc1ccc(Cl)cc1)C(=O)O; d2Nal = N[C@H](Cc1ccc2ccccc2c1)C(=O)O; dCit = NC(=O)NCCC[C@@H](N)C(=O)O; d3Pal = N[C@H](Cc1cccnc1)C(=O)O

System: patients with confirmed endometriosis
Test: Weekly 3 mg Cetrorelix for 8 weeks in patients with confirmed endometriosis
Format: in vivo, human
Details: 3 mg weekly for 8 weeks

CC(=O)N[C@H](Cc1ccc2ccccc2c1)C(=O)N[C@H](Cc1ccc(Cl)cc1)C(=O)N[C@H](Cc1cccnc1)C(=O)N[C@@H](CO)C(=O)N[C@@H](Cc1ccc(O)cc1)C(=O)N[C@H](CCCNC(N)=O)C(=O)N[C@@H](CC(C)C)C(=O)N[C@@H](CCCNC(=N)N)C(=O)N1CCC[C@H]1C(=O)N[C@H](C)C(N)=O [Cetrorelix acetate] (Ac-[d2Nal][dPhe(4-Cl)][d3Pal]SY[dCit]LRP[dA]-NH2)
hot flushes or other hormonal (estradiol) withdrawal symptoms: avoiding any hot flushes or other withdrawal symptoms | proliferation of the endometrium at the end of treatment (histological biopsies): no proliferation of the endometrium | hot flushes or other hormonal (estradiol) withdrawal symptoms (listed as Cetrorelix): without any signs of estradiol withdrawal symptoms | proliferation of the endometrium at the end of treatment (histological biopsies) (listed as Cetrorelix): without proliferation of the endometrium
